From patent US20260248702A1, “Composition Comprising a UV-Filter Stabilizer” (Symrise AG, priority 2022, published 2026)
Values belong to the molecule of their own block, whether it stands above or below them.

Test: Photostability test: E1%/cm absorbance measurement before and after irradiation with 5 MED
Assay type: physicochemical
Conditions: for Photostability result in words / Lost (%) after irradiation with 5 MED (1,250 J/m^2) / E max (nm): E1%/cm solution; for Lost (%) after irradiation with 5 MED (1,250 J/m^2): absorbance loss at E max; for E max (nm): wavelength of maximum absorbance; for loss of the photo-unstable UV-filter (absorbance loss), UV-filter alone versus in combination with the MAA compound: after irradiation with 5 MED, no wavelength given in the sentence; for photo-stabilizing effect in words: summary statements on the photostability test
Experimental: The photostability of a UV-filter can be determined in vitro using absorbance measures, by which the loss in absorbance of the UV-filter before and after irradiation, for example with 5 MED, is measured. The loss in absorbance of the UV-filter goes along with the degradation of the UV-filter by one or more photochemical reactions, including photofragmentation, isomerization, tautomerization, photoaddition and the like. UV-filters with an absorbance loss≥20% after irradiation are classified as photo-unstable. Alternatively, the photostability of a UV-filter can be determined by analytical measures, that is by quantitative determination of the amount (i.e. concentration) by which the filter is degraded.
UV-filters are usually tested for photostability to ensure that no degradation of the UV-filter itself or in combination with other substances takes place.
The UV-filter stabilizing properties of mycosporine-like amino acid compounds were explored by comparing the behaviour of UV-filter alone relative to UV-filters in combination with a certain mycosporine-like amino acid compound.
In the present case single photo-unstable UV-filters as well as formulations of photo-unstable filters with certain mycosporine-like amino acid compounds were subjected to photostability testing, described in detail below, to determine the retention of absorption of UVA and UVB radiation (full spectrum analysis) after exposing the sample to 5 MED (minimal erythema) dose (1 MED=250 J/m^2).
Sample preparation: The substance or the formulation to be tested was dissolved in a suitable solvent. For this purpose, a certain amount of the substance or formulation was transferred by means of an analytical balance/pipette into a graduated flask and filled with the selected solvent. The filling up to the calibration mark of the graduated flask was carried out only after complete dissolution of the substance and temperature control at 20° C.
Preparation of solution E 1%/cm: 100 mg of the substance or formulation to be tested were weighed into a graduated flask and filled up to 100 ml with the corresponding solvent. A clear solution was obtained. If necessary, an ultrasonic bath can be used to improve solubility. For further dilution the sample was adjusted to a temperature of 20° C. 1 ml of the dissolved solution was added into a second graduated 100 ml flask, filled up to 100 ml at a temperature of 20° C. The final concentration of the thus obtained solution was 0.001%. (E1%/cm). This solution was used for absorbance measurement and irradiation. Said solution was transferred to a 10 mm quartz cuvette with closure.
Irradiation: Irradiation of the sample was performed for […] with 700 W/m^2 emitted by an Atlas SUN Test CPS. This corresponds to an amount of energy of 5 MED (minimal erythema) dose (=1,250 J/m^2). At the same time, the temperature of the devise was adjusted to max 30° C. in order to avoid strong heating of the sample.
Measurement: The absorbance measurement of the sample in the quartz cuvette with closure (10 mm) was carried out in a wavelength range of 200 nm to 700 nm with a Lambda 25 UV spectrometer. A blank absorbance test was carried out with the corresponding solvent for preparing the samples as described above. The absorbance measurement of the samples was carried out before (pre-irradiation) and after irradiation emitted by a Atlas SUN Test CPS (see above).
The amplitude of the absorbance curve reflects the degree of protection. The higher the amplitude of the curve, the greater the absorbance and the more protection provided at that wavelength. Within the UVB portion of the spectrum (290 nm to 320 nm) this amplitude correlates with the SPF. The greater the breadth of the curve, the more protection provided against longer wave UV ration. In other words, the greater the breadth of the curve, the broader the spectrum of sun protection provided. […]

[1] = after irradiation with 5 MED (1,250 J/m^2)

Photostability result in words [1]: Not photostable
SMILES: CCCCC(CC)COC(=O)C=Cc1ccc(OC)cc1 (stereo not drawn) [Ethylhexyl Methoxycinnamate, Ethylhexyl-Methoxycinnamate]

Absorbance loss at 310 nm (E1%/cm solution (0.001%), after irradiation with 5 MED (1,250 J/m^2), read at 310 nm): 30.5%
Photostability result in words [1]: Not photostable
Lost (%) after irradiation with 5 MED (1,250 J/m^2): 30.50%
E max (nm): 310 nm
loss of the photo-unstable UV-filter (absorbance loss), UV-filter alone versus in combination with the MAA compound: 30.50%
Critical Wavelength (nm) (wavelength at which 90% of the total area under the UV protection curve (280-400 nm) is reached): 324 nm
SMILES: COc1ccc(/C=C/C(=O)OCCC(C)C)cc1 [Isoamyl p-Methoxycinnamate, Isoamyl-p-Methoxycinnamate]

The remaining lines, values behind:

SMILES: COc1ccc(C(=O)CC(=O)c2ccc(C(C)(C)C)cc2)cc1 [Butyl Methoxydibenzoylmethane, Butyl-Methoxydibenzoylmethane or Avobenzone]
Absorbance loss at 358 nm (E1%/cm solution (0.001%), after irradiation with 5 MED (1,250 J/m^2), read at 358 nm): 7.05%
Photostability result in words [1]: photostable in this kind of medium
Lost (%) after irradiation with 5 MED (1,250 J/m^2): 7.05%
E max (nm): 358 nm
loss of the photo-unstable UV-filter (absorbance loss), UV-filter alone versus in combination with the MAA compound: 7.05%

SMILES: CCOC(=O)CNC1=C/C(=N/c2ccccc2)CC(C)(C)C1 [MAA-1, ethyl 2-[[5,5-dimethyl-3-phen-ylimino-cyclohexen-1-yl]amino] acetate]
Absorbance loss at 321 nm (E1%/cm solution (0.001%), after irradiation with 5 MED (1,250 J/m^2), read at 321 nm): 0.53%
Photostability result in words [1]: Very photostable molecule
photo-stabilizing effect in words: pronounced photo-stabilizing effect

SMILES: COc1ccc(/N=C2\CC(C)(C)CC3=C2SCC(C(=O)O)N3)cc1OC (stereo not drawn) [MAA-13, 8-((3,4-dimethoyxphenyl)-imino)-6,6-dimethyl-3,4,5,6,7,8-hexahydro-2-H-benzol[b][1,4]thiazine-3-car-boxylic acid]
Absorbance loss at 364 nm (E1%/cm solution (0.001%), after irradiation with 5 MED (1,250 J/m^2), read at 364 nm): 5.13%
Photostability result in words [1]: Very photostable molecule
photo-stabilizing effect in words: pronounced photo-stabilizing effect

SMILES: CC1(C)CC(NCC(=O)O)=C/C(=N/c2ccccc2)C1 [MAA-20, 2-[(5,5-dimethyl-3-phenyl-imino-cyclohexen-1-yl)-amino]acetic acid]
Photostability result in words [1]: Very photostable molecule

SMILES: CC1(C)CC(NCC(=O)O)=C/C(=N/c2ccc(S(=O)(=O)O)cc2)C1 [MAA-28, 2-[(5,5-dimethyl-3-(4-sulfo-phenyl)imino-cyclohexen-1-yl)amino]acetic acid]
Absorbance loss at 335 nm (E1%/cm solution (0.001%), after irradiation with 5 MED (1,250 J/m^2), read at 335 nm): 15.03%
Photostability result in words [1]: A photostable molecule
